Series [1] relates to hippocampal CA1 synapses of APP/PS1 mice. Nature of the series: Late long-term potentiation, field recordings in hippocampal slices. Also noted: species or system mouse. Particulars: for S1 fEPSP slope at the end of the experiment / potentiation of S1 fEPSP slope after STET: APP/PS1 slices.
Series [2] concerns murine microglial cell line BV-2. Kind of series: LPS-induced neuroinflammation in BV-2 microglial cells (cytokines by MSD V-PLEX, MTT). It counts as cell-based, mouse.
Experimental: Lipopolysaccharide (LPS)-Induced Neuroinflammation: The murine microglial cell line BV-2 was cultivated in DMEM medium supplemented with 10% FCS, 1% penicillin/streptomycin and 2 mM L-glutamine (culture medium). For LPS stimulation assay, 5000 BV-2 cells per well (uncoated 96 well plates) were plated out and the medium was changed to treatment medium (DMEM, 5% FCS, 2 mM L-glutamine). After changing cells to treatment medium, drug compounds were administered 1 hour before LPS stimulation (Sigma-Aldrich; L6529; 1 mg/ml stock in ddH2O, final concentration in well: 100 ng/ml (dilutions in medium)). Cells treated with vehicle, cells treated with LPS alone, as well as cells treated with LPS plus reference item (dexamethasone 10 μM, Sigma D4902) served as controls. After 24 h of stimulation, cell supernatants were collected for the cytokine measurement (V-PLEX Proinflammatory Panel 1 Mouse Kit, K15048D, Mesoscale) and cells were subjected to MTT assay.
MTT Assay: MTT solution was added to each well in a final concentration of 0.5 mg/mL. After 2 h, the MTT containing medium was aspirated. Cells were lysed in 3% SDS and the formazan crystals were dissolved in isopropanol/HCl. Optical density was measured with a Cytation 5 (Biotek) multimode reader at wavelength 570 nm. Values were calculated as percent of control values (vehicle control or lesion control).
After changing cells to treatment medium, HCQ (0.25 μM, 2.5 μM and 25 μM) was applied 1 hour before LPS stimulation (Sigma-Aldrich; L6529; 1 mg/ml stock in ddH2O, final concentration in well: 100 ng/ml (dilutions in medium)).
The test system of series [3] is SH-SY5Y-hTau441(V337M/R406W) cells. Nature of the series: Tau phosphorylation assay (Phospho(Thr231)/Total Tau). It counts as cell-based, human.
Experimental: Tau Phosphorylation: SH-SY5Y-hTau441(V337M/R406W) cells were maintained in culture medium (DMEM medium, 10% FCS, 1% NEAA, 1% L-Glutamine, 100 g/mL Gentamycin, 300 μg/mL Geneticin G-418) and differentiated with 10 μM retinoic acid (RA) for 5 days changing medium every 2 to 3 days. Prior to the treatment, cells were seeded onto 24-well plates at a cell density of 2×10^5 cells per well (DIV1). Drug compounds were applied on DIV2. After 24 h of incubation (DIV3), cells on 24-well plates were harvested in 60 μL RIPA-Buffer [50 mM Tris pH 7.4, 1% Nonidet P40, 0.25% Na-deoxy-cholate, 150 mM NaCl, 1 mM EDTA supplemented with freshly added 1 μM NaF, 0.2 mM Na-ortho-vanadate, 80 μM Glycerophosphate, protease (Calbiochem) and phosphatase (Sigma) inhibitor cocktail]. Protein concentration was determined by BCA assay (Pierce, ThermoFisher) and samples were adjusted to a uniform total protein concentration. Total Tau and phosphorylated Tau were determined by immunosorbent assay from Mesoscale Discovery (Phospho(Thr231)/Total Tau Kit K15121D, Mesoscale Discovery).
Tau phosphorylation: SH-SY5Y-hTau441(V337M/R406W) cells were maintained in culture medium (DMEM medium, 10% FCS, 1% NEAA, 1% L-Glutamine, 100 μg/mL Gentamycin, 300 μg/mL Geneticin G-418) and differentiated with 10 μM retinoic acid (RA) for 5 days changing medium every 2 to 3 days. Prior to the treatment, cells were seeded onto 24-well plates at a cell density of 2×10^5 cells per well (DIV1). HCQ (25 μM) was applied on DIV2. After 24 h of incubation (DIV3), cells on 24-well plates were harvested in 60 μL RIPA-Buffer [50 mM Tris pH 7.4, 1% Nonidet P40, 0.25% Na-deoxy-cholate, 150 mM NaCl, 1 mM EDTA supplemented with freshly added 1 μM NaF, 0.2 mM Na-ortho-vanadate, 80 μM Glycerophosphate, protease (Calbiochem) and phosphatase (Sigma) inhibitor cocktail]. Protein concentration was determined by BCA assay (Pierce, ThermoFisher) and samples were adjusted to a uniform total protein concentration. Total Tau and phosphorylated Tau were determined by immunosorbent assay from Mesoscale Discovery (Phospho(Thr231)/Total Tau Kit K15121D, Mesoscale Discovery).
Tau Phosphorylation: SH-SY5Y-hTau441(V337M/R406W) cells were maintained in culture medium [DMEM medium, 10% FCS, 1% nonessential amino acids (NEAA), 1% l-glutamine, gentamycin (100 μg/ml), and geneticin G-418 (300 μg/ml)] and differentiated with 10 μM retinoic acid for 5 days changing medium every 2 to 3 days. […] Protein concentration was determined by BCA assay (Pierce, Thermo Fisher Scientific, Waltham, MA), and samples were adjusted to a uniform total protein concentration. Total tau and phosphorylated tau were determined by immunosorbent assay from Mesoscale Discovery [Phospho(Thr231)/Total Tau Kit K15121D, Mesoscale Discovery, Meso Scale Diagnostics]. […]
Another series has as its system H4-hAPP cells. Kind of series: Aβ secretion assay. Format: cell-based, human. How it is done: Aβ Secretion: H4-hAPP cells were cultivated in Opti-MEM supplemented with 10% FCS, 1% penicillin/streptomycin 200 μg/mL Hygromycin B and 2.5 μg/mL Blasticidin S. H4-hAPP cells were seeded into 96 well plates (2×10^4 cells per well). On the next day, cells in 96 well plates were treated with compounds, R.I. (DAPT 400 nM) or vehicle. 24 h later, supernatants were collected for further Aβ measurements by MSD® (V-PLEX Aβ Peptide Panel 1 (6E10) Kit, K15200E, Mesoscale Discovery).
Aβ secretion: Human APP overexpressing H4-hAPP cells were cultivated in Opti-MEM supplemented with 10% FCS, 1% penicillin/streptomycin 200 μg/mL Hygromycin B and 2.5 μg/mL Blasticidin S. H4-hAPP cells were seeded into 96 well plates (2×10^4 cells per well). On the next day, cells in 96 well plates were treated HCQ (0.25 μM, 2.5 μM and 25 μM) or the reference item (DAPT 400 nM), a γ-secretase inhibitor vehicle. 24 h later, supernatants were collected for further Aβ measurements by MSD® (V-PLEX Aβ Peptide Panel 1 (6E10) Kit, K15200E, Mesoscale Discovery).
Cultivation and treatment of H4-hAPP cells: H4-hAPP cells were thawed and cultivated in Opti-MEM supplemented with 10% FCS, 1% penicillin/streptomycin 200 μg/ml Hygromycin B and 2.5 μg/ml Blasticidin S (=culture medium). H4-hAPP cells were seeded into 96 well plates (2×10^4 cells per well). On the next day, cells in 96 well plates were treated with TUDCA (100 μM (C1), 10 μM (C2), or 1.0 μM (C3)), R.I. (DAPT 400 nM) or vehicle. Alternatively, cells in 96 well plates were treated with 25 μM HCQ/0.1 μM TUDCA (C1), 2.5 μM HCQ/100 μM TUDCA (C2), and 2.5 μM HCQ/10 μM TUDCA (C3). 24 h later, supernatants were collected for further Aβ measurements by MSD. The experiment was performed in n=6 technical replicates for all groups.
Aβ38, 40, 42 measurement: Supernatants were diluted 1:10 and analyzed for human Aβ38, 40, and 42 with MSD® 96-well MULTI-SPOT® 6E10 Abeta Triplex Assay (Mesoscale Discovery, Rockville, MD). The immune assay was carried out according to the manual and plates are read on the MESO QuickPlex SQ 120 multiplexing instrument. Analyte levels were evaluated according to adequate Aβ peptide standards (MSD) as pg per mL.
Aβ Secretion: H4-hAPP cells were cultivated in Opti-MEM supplemented with 10% FCS, 1% penicillin/streptomycin, hygromycin B (200 μg/ml), and blasticidin S (2.5 μg/ml). H4-hAPP cells were seeded into 96-well plates (2×10^4 cells per well). On the next day, cells in 96-well plates were treated with compounds, reference item [400 nM N-[N-(3,5-difluorophenacetyl-1-alanyl)]-S-phenylglycine t-butyl ester (DAPT)], or vehicle. Twenty-four hours later, supernatants were collected for further Aβ measurements by MSD [V-PLEX Aβ Peptide Panel 1 (6E10) Kit, K15200E, Mesoscale Discovery].
Culture and treatment of H4-hAPP cells: H4-hAPP cells were thawed and cultivated in Opti-MEM supplemented with 10% FCS, 1% penicillin/streptomycin 200 μg/ml Hygromycin B and 2.5 μg/ml Blasticidin S (=culture medium). H4-hAPP cells were seeded into 96 well plates (2×10^4 cells per well). On the next day, cells in 96 well plates were treated with T.I., R.I. (DAPT 400 nM) or vehicle. 24 h later, supernatants were collected for further Aβ measurements by MSD. The experiment was performed in n=6 technical replicates for all groups.
Aβ38, 40, 42 measurement in H4-hAPP cells: Supernatants were diluted 1:10 and analyzed for human Aβ38, 40, and 42 with MSD® 96-well MULTI-SPOT® 6E10 Abeta Triplex Assay (Mesoscale Discovery). The immune assay was carried out according to the manual and plates were read on the MESO QuickPlex SQ 120. Analyte levels were evaluated according to adequate Aβ peptide standards (MSD) as pg per mL.

Another series concerns BV-2 cells. Kind of series: Aβ1-42 clearance assay. It counts as cell-based, mouse. To be noted: posterior probability of a protective effect, Bayesian dose-response model. As for the experimental part: AB Clearance: For the amyloid beta (Aβ) clearance assay, 20000 BV-2 cells per well (uncoated 96 well plates) were plated out. After changing cells to treatment medium, drug compounds were administered 1 hour before Aβ stimulation (Bachem 4061966; final concentration in well: 200 ng/ml (dilutions in medium)). Cells treated with vehicle and cells treated with Aβ alone served as controls. After 3 h of Aβ stimulation, cell supernatants were collected for the Aβ measurement and cells were carefully washed twice with PBS and thereafter lysed in 35 μL cell lysis buffer (50 mM Tris-HCl, pH 7.4, 150 mM NaCl, 5 mM EDTA, 1% SDS) supplemented with protease inhibitors. Supernatants and cell lysates were analyzed for human Aβ42 with MSD® V-PLEX Human Aβ42 Peptide (6E10) Kit (K151LBE, Mesoscale Discovery). The immune assay was carried out according to the manual and plates were read on the MESO QuickPlex SQ 120.
Aβ1-42 clearance: For Abeta (Aβ1-42) clearance assay, 20,000 BV-2 cells per well (uncoated 96 well plates) were plated out. After changing cells to treatment medium, HCQ (0.25 μM, 2.5 μM and 25 μM) was applied 1 hour before Aβ1-42 stimulation (Bachem 4061966; final concentration in well: 200 ng/ml (dilutions in medium)). Cells treated with vehicle (0.1% DMSO) and cells treated with Aβ1-42 alone served as controls. After 3 h of Aβ1-42 stimulation, cell supernatants were collected for the Aβ1-42 measurement and cells were carefully washed twice with PBS and thereafter lysed in 35 μL cell lysis buffer (50 mM Tris-HCl, pH 7.4, 150 mM NaCl, 5 mM EDTA, 1% SDS) supplemented with protease inhibitors. Supernatants and cell lysates were analyzed for human Aβ1-42 with MSD® V-PLEX Human Aβ42 Peptide (6E10) Kit (K151LBE, Mesoscale Discovery). The immune assay was carried out according to the manufacturer's manual and plates were read on the MESO QuickPlex SQ 120.
Aβ Clearance: 20,000 BV2 cells per well (uncoated 96-well plates were plated out. After changing cells to treatment medium, drug compounds were administered 1 hour before Aβ stimulation (final concentration in well 200 ng/ml; dilutions in medium). Cells treated with vehicle and cells treated with Aβ alone served as controls. After 3 hours of Aβ stimulation, cell supernatants were collected for the Aβ measurement and cells were carefully washed twice with PBS and thereafter lysed in 35 μl of cell lysis buffer (50 mM tris-HCl, pH 7.4, 150 mM NaCl, 5 mM EDTA, and 1% SDS) supplemented with protease inhibitors. Supernatants and cell lysates were analyzed for human Aβ42 with the MSD V-PLEX Human Aβ42 Peptide (6E10) Kit (K151LBE, Mesoscale Discovery). The immune assay was carried out according to the manual, and plates were read on MESO QuickPlex SQ 120 (Meso Scale Diagnostics, Rockville, MD).
For Aβ clearance assay, 20,000 BV-2 cells per well (uncoated 96 well plates) were plated out. After 24 hours, medium was changed to treatment medium (DMEM, 5% FCS, 2 mM L-glutamine) and cells were maintained in treatment medium for the remaining culture period. After changing cells to treatment medium, the test items were administered 1 hour before Aβ stimulation (Bachem 4061966; final concentration in well: 200 ng/mL (dilutions in medium)). Cells treated with vehicle, cells treated with Aβ alone, as well as wells with Aβ but no cells served as controls. All wells were handled the same way. After 3 h of Aβ stimulation, cell supernatants were collected for the Aβ measurement and cells were carefully washed twice with PBS and thereafter lysed in 35 μl cell lysis buffer (50 mM Tris-HCl, pH 7.4, 150 mM NaCl, 5 mM EDTA, 1% SDS) supplemented with protease inhibitors. Cells were incubated for 15 min at RT on a plate shaker, samples were frozen at −80° C. until further use. The experiment was performed in n=6 technical replicates for all groups. […]

Another series relates to iPSCs. Nature of the series: LPS induced neuroinflammation (iPSCs). To be noted: posterior probability of a protective effect. Format: cell-based. How it is done:
Cell-based assays: For each combination of drugs and assay, the posterior probability P(Hi|data) of protective, neutral, and adverse drug effect (formal hypotheses H1, H0, H2, respectively) were evaluated. Dose-response relationships (x-y data) were modeled with a Bayesian nonlinear regression model:
and Bayesian estimation of the posterior density of the fold change was performed using default settings of the Markov chain Monte Carlo samples implemented by the PyMC python library. For efficient sample, each bioactivity data set was standardized such that […] corresponded to one standard deviation. Diagnostic criteria (posterior sample of fitted curves, effective sample sizes, values of the r statistic, and Markov chain standard errors) were inspected for the fit and three poorly fitted data sets out of a total of 91 data sets were excluded.

The subject of series [4] is hippocampal neuronal cells. To be noted: Lee et al. 2019; cited from earlier work.
The test system of series [5] is hippocampal cell cultures. Particulars: Rzemieniec et al. 2019; cited from earlier work.

Molecules are shown by their SMILES.

For the molecule `CCN(CCO)CCCC(C)Nc1ccnc2cc(Cl)ccc12` (racemic) [HCQ racemic free base], in series [1] (25 μM HCQ racemic free base), the “late-LTP in APP/PS1 mice” value is listed as “partial rescue”, the “S1 fEPSP slope at the end of the experiment” value was 118.003±7.753% and the “potentiation of S1 fEPSP slope after STET” value is given as 155.545±12.309%. In addition, in series [1] (50 μM HCQ racemic free base), the “late-LTP in APP/PS1 mice” value is reported as “diminished initial potentiation which did not last”, the “S1 fEPSP slope at the end of the experiment” value came to 119.117±8.167% and the “potentiation of S1 fEPSP slope after STET” value came out at 128.809±8.116%. Further, the “late LTP in age-matched WT mice” value in series [1] (50 μM HCQ racemic free base, preliminary (n=1)) is listed as “partially impaired”.
Regarding `COc1ccc(S(=O)(=O)Nc2cc(-c3c(O)ccc4ccccc34)c(O)c3ccccc23)cc1` [C188-9, N-[4-hydroxy-3-(2-hydroxynaphthalen-1-yl)naphthalen-1-yl]-4-methoxybenzenesulfonamide], the “release of IL-1β” value in series [2] (0.3 μM and 0.6 μM, relative to LPS) is on record as “significantly reduced”. For the same molecule, the “release of IL-6” value in series [2] (0.6 μM, 24 h LPS stimulation, relative to LPS) is “significantly reduced”. Moreover, the cell viability entry in series [2] (C188-9 in LPS assay, results not shown) is “no adverse effects on cell viability”; in the series with H4-hAPP cells (C188-9 in Aβ secretion assay, results not shown) it was “no adverse effects on cell viability”. Further, the “phosphorylated tau 231 (ptau)” value in series [3] (10 μM, 24 h, relative to VC) is “significantly reduced”. For the same molecule, the “Aβ42: Aβ40 ratio” value with H4-hAPP cells (1 μM, relative to VC) was “significantly reduced”. For the same molecule, the “endogenous Aβ1-42” value with H4-hAPP cells (1 μM, relative to VC) is recorded as “significantly reduced”.
Turning to `Cc1c[nH]c(-c2cnc(NCCNc3ccc(C#N)cn3)nc2-c2ccc(Cl)cc2Cl)n1` [CHIR], in series [3] (reference item, compared to vehicle control), the “phosphorylated Tau” value was “significantly reduced”.
Take `C[C@H](NC(=O)Cc1cc(F)cc(F)c1)C(=O)N[C@H](C(=O)OC(C)(C)C)c1ccccc1` [DAPT, N-[N-(3,5-difluorophenacetyl-1-alanyl)]-S-phenylglycine t-butyl ester]: the “Aβ species (Aβ1-38, 1-40 and 1-42) in supernatant” value in the series on H4-hAPP cells (reference item, 400 nM, 24 h) was “significantly reduced all tested species”.
For the molecule `c1ccc2c(Cc3c[nH]c4ccccc34)c[nH]c2c1` [DIM, 3,3′-diindolylmethane], in series [2] (posterior probability of a protective effect), the “effect in LPS induced neuroinflammation (BV2 cells)” value is “protective”. In addition, in the series on BV-2 cells, the “effect in Aβ clearance (BV2 cells)” value is listed as “strongly protective”. For the same molecule, the “LTP in APP/PS1 slices” value in series [1] (10 μM DIM, acute application) is “rescues LTP”. Also, the “late LTP in APP/PS1 slices” value in series [1] (3-hour pre-incubation with 10 μM DIM) is listed as “no longer results in rescue”. Moreover, the “effect in LPS induced neuroinflammation (iPSCs)” value in the series with iPSCs is recorded as “strongly protective”. The oxidative stress-induced apoptosis entry in series [4] is on record as “inhibit”. Moreover, the “ischemia-induced apoptosis and autophagy” value in series [5] was “protect”.

These data come from patent publication US20240269128A1, “COMPOUNDS FOR TREATING OR PREVENTING ALZHEIMER'S DISEASE” (THE UNITED STATES OF AMERICA, as represented by the …, priority 2021, published 2024).
